# US20040162263A1, “Pharmaceutical formulations targeting specific regions of the gastrointesinal tract” (priority 2002, published 2004)
# Values joined by “and” are separate entries in the source; they are usually repeats but may differ in a detail not shown here. Equal entries are not always repeated. Where two headings read alike, the source gives them in different places.
# Columns and labels:
# [1] = Pharmacokinetics of decitabine in IVAP rabbit model; format: in vivo, rabbits; conditions: for bioavailability / AUC(0-inf) / half-life / MRT / TMAX / clearance / Vd / CMAX: rabbit; for MRT: read-out: Mean Residence Time; for clearance: read-out: Clearance (converted); for Vd: read-out: Volume (Vz); for CMAX: read-out: Mean Cmax
# Protocol: Decitabine was administered intravenously to IVAP rabbits (n=3) at three doses: 0.75, 1.5 and 2.5 mg/kg. It was also administered at 2.5mg/kg orally and through previously implanted intestinal and vascular access ports in the portal vein (PV), upper small intestine (USI), lower small intestine (LSI) and colon (IC). All routes received the same simple formulation of raw compound dissolved in cold saline. Care was taken to insure doses were delivered immediately (less than 15 minutes) after dissolving the powder and that the liquid formulation was kept on ice up to the time of administration. Blood samples were taken simultaneously from the median auricular artery and through a port in the portal vein at predetermined time points. Plasma was separated and kept frozen at −70° C. until shipped to Xenobiotic Laboratories for analysis.
# Pharmacokinetic parameters were calculated using non-compartmental models with the Winnonlin v3.1 program.
# [2] = Physico-chemical properties of decitabine (solubility, stability); format: physicochemical
# [3] = plasma, 2.5 mg/kg, 2.5 mg/kg IC
# [4] = plasma, 2.5 mg/kg, 2.5 mg/kg LSI
# [5] = plasma, 2.5 mg/kg, 2.5 mg/kg USI
# [6] = plasma, 2.5 mg/kg, LSI 2.5 mg/kg
# [7] = plasma, 2.5 mg/kg, USI 2.5 mg/kg
# [8] = plasma, Overall mean of all doses and routes
# [9] = plasma, iv, 0.75 mg/kg, 0.75 mg/kg IV
# [10] = plasma, iv, 1.5 mg/kg, 1.5 mg/kg IV
# [11] = plasma, iv, 2.5 mg/kg, 2.5 mg/kg IV
# [12] = plasma, other: portal vein (PV) via implanted access port, 2.5 mg/kg, 2.5 mg/kg PV
# [13] = plasma, other: portal vein (PV) via implanted access port, 2.5 mg/kg, PV
# [14] = plasma, po, 2.5 mg/kg, 2.5 mg/kg Oral
# [15] = plasma, po, 2.5 mg/kg, Oral 2.5 mg/kg
smiles,measurement,setting,value
"Nc1ncn([C@H]2C[C@H](O)[C@@H](CO)O2)c(=O)n1 [decitabine, 5-aza-2′-deoxycytidine]",Individual systemic Bioavailability,"[1]; PO 2.5 mg/kg, 2.5 mg/kg",28.57% and 38.84%
same,"systemic Bioavailability, Mean","[1]; PO 2.5 mg/kg, 2.5 mg/kg",35.51%
same,Individual systemic Bioavailability,[1]; PV 2.5 mg/kg,79.63% and 58.11% and 66.02%
same,"systemic Bioavailability, Mean",[1]; PV 2.5 mg/kg,67.92%
same,Individual systemic Bioavailability,[1]; USI 2.5 mg/kg,84.33% and 72.64%
same,"systemic Bioavailability, Mean",[1]; USI 2.5 mg/kg,73.94%
same,bioavailability,"[1]; plasma (systemic), 2.5 mg/kg, IC 2.5 mg/kg, read-out: systemic Bioavailability, Mean",34.3%
same,bioavailability,"[1]; plasma (systemic), 2.5 mg/kg, LSI 2.5 mg/kg, read-out: Individual systemic Bioavailability",55%
same,bioavailability,"[1]; plasma (systemic), 2.5 mg/kg, LSI 2.5 mg/kg, read-out: systemic Bioavailability, Mean",50.4%
same,bioavailability,"[1]; plasma (systemic), 2.5 mg/kg, USI 2.5 mg/kg, read-out: Individual systemic Bioavailability",64.8%
same,bioavailability,"[1]; plasma (systemic), po, 2.5 mg/kg, PO 2.5 mg/kg, read-out: Individual systemic Bioavailability",39.1%
same,AUC(0-inf),"[1]; plasma (systemic, median auricular artery), 2.5 mg/kg, USI 2.5 mg/kg, read-out: Mean AUC0-inf in Systemic Samples",837 ng·h/mL
same,AUC(0-inf),"[1]; plasma (systemic, median auricular artery), po, 2.5 mg/kg, Oral 2.5 mg/kg, read-out: Mean AUC0-inf in Systemic Samples",402 ng·h/mL
same,half-life,[1]; [3],40.8 ± 0.6 min
same,MRT,[1]; [3],64.2 ± 1.2 min
same,half-life,[1]; [4],44.4 ± 3.6 min
same,MRT,[1]; [4],55.2 ± 5.4 min
same,half-life,[1]; [5],47.4 ± 5.4 min
same,MRT,[1]; [5],55.2 ± 4.8 min
same,TMAX,"[1]; plasma, 2.5 mg/kg, IC 2.5 mg/kg",15 min
same,clearance,"[1]; plasma, 2.5 mg/kg, IC",36.8 mL/min/kg
same,Vd,"[1]; plasma, 2.5 mg/kg, IC",2.16 L/kg
same,TMAX,[1]; [6],8.4 ± 5.76 min
same,CMAX,[1]; [6],736 ± 95.6 ng/mL
same,clearance,"[1]; plasma, 2.5 mg/kg, LSI",37.2 mL/min/kg
same,Vd,"[1]; plasma, 2.5 mg/kg, LSI",2.37 L/kg
same,bioavailability,"[1]; plasma, 2.5 mg/kg, PV 2.5 mg/kg, read-out: systemic Bioavailability, Mean",67.9%
same,TMAX,[1]; [7],4.98 min
same,CMAX,[1]; [7],1220 ± 280 ng/mL
same,bioavailability,"[1]; plasma, 2.5 mg/kg, USI 2.5 mg/kg, read-out: systemic Bioavailability, Mean",73.9%
same,clearance,"[1]; plasma, 2.5 mg/kg, USI",37.2 mL/min/kg
same,Vd,"[1]; plasma, 2.5 mg/kg, USI",2.51 L/kg
same,half-life,[1]; [8],43.2 ± 4.2 min
same,MRT,[1]; [8],55.8 ± 6.6 min
same,half-life,[1]; [9],43.8 ± 1.8 min
same,MRT,[1]; [9],50.4 ± 1.8 min
same,AUC(0-inf),"[1]; plasma, iv, 0.75 mg/kg, IV 0.75 mg/kg, read-out: IV AUC0-inf, Mean",340 ng·h/mL
same,AUC(0-inf),"[1]; plasma, iv, 0.75 mg/kg, IV 0.75 mg/kg, read-out: IV AUC0-inf, individual",323 ng·h/mL
same,half-life,[1]; [10],45 ± 2.4 min
same,MRT,[1]; [10],49.8 ± 1.8 min
same,AUC(0-inf),"[1]; plasma, iv, 1.5 mg/kg, IV 1.5 mg/kg, read-out: IV AUC0-inf, Mean",574 ng·h/mL
same,AUC(0-inf),"[1]; plasma, iv, 1.5 mg/kg, IV 1.5 mg/kg, read-out: IV AUC0-inf, individual",557 ng·h/mL
same,half-life,[1]; [11],35.4 ± 1.2 min
same,MRT,[1]; [11],49.8 ± 9 min
same,AUC(0-inf),"[1]; plasma, iv, 2.5 mg/kg, IV 2.5 mg/kg, read-out: IV AUC0-inf, Mean",1060 ng·h/mL
same,AUC(0-inf),"[1]; plasma, iv, 2.5 mg/kg, IV 2.5 mg/kg, read-out: IV AUC0-inf, individual",1170 ng·h/mL
same,clearance,"[1]; plasma, iv, IV (overall)",40 mL/min/kg
same,Vd,"[1]; plasma, iv, IV (overall)",2.41 ± 0.41 L/kg
same,bioavailability,"[1]; plasma, other: portal vein (PV) port, 2.5 mg/kg, PV 2.5 mg/kg, read-out: systemic Bioavailability, Mean",68%
same,half-life,[1]; [12],46.2 ± 4.2 min
same,MRT,[1]; [12],48 ± 3.6 min
same,clearance,[1]; [13],55.2 mL/min/kg
same,Vd,[1]; [13],3.63 L/kg
same,bioavailability,"[1]; plasma, other: upper small intestine (USI) port, 2.5 mg/kg, USI 2.5 mg/kg, read-out: systemic Bioavailability, Mean",74%
same,half-life,[1]; [14],41.4 ± 15.6 min
same,MRT,[1]; [14],72.6 ± 24 min
same,TMAX,[1]; [15],25.2 ± 8.4 min
same,CMAX,[1]; [15],335 ± 134 ng/mL
same,bioavailability,"[1]; plasma, po, 2.5 mg/kg, PO 2.5 mg/kg, read-out: systemic Bioavailability, Mean",35.5%
same,AUC(0-inf),"[1]; portal vein plasma, 2.5 mg/kg, LSI 2.5 mg/kg, read-out: Mean AUC0-inf in Portal Vein",586 ng·h/mL
same,AUC(0-inf),"[1]; portal vein plasma, 2.5 mg/kg, USI 2.5 mg/kg, read-out: Mean AUC0-inf in Portal Vein",833 ng·h/mL
same,AUC(0-inf),"[1]; portal vein plasma, po, 2.5 mg/kg, Oral 2.5 mg/kg, read-out: Mean AUC0-inf in Portal Vein",397 ng·h/mL
same,AUC(0-inf),"[1]; systemic plasma (median auricular artery), 2.5 mg/kg, LSI 2.5 mg/kg, read-out: Mean AUC0-inf in Systemic Samples",571 ng·h/mL
same,moisture at equilibrium of monohydrate formed on exposure to humidity,[2],7%
same,solubility in alcohol,[2],highly soluble
same,solid remains stable,"[2]; 15-30° C., not exposed to humidity",36 months
same,degradation rate in aqueous environment,[2]; pH 7 and 2-8° C.,about 0.7 %/hr
same,degradation rate in aqueous environment,[2]; pH 7 and 25° C.,2.5 %/hr
same,solubility,[2]; water,~25 mg/mL
